Experimental data from ChEMBL document CHEMBL1201862, “PubChem BioAssay data set” (2004).
The source made the active and inactive calls. No stated cut-off is given here; in the data, actives have a measured IC50 and inactives only a lower limit.

These molecules were tested against Envelope glycoprotein gp160 (Human immunodeficiency virus 1, UniProt Q6QLK5) (assay: inhibitors of HIV fusion peptide binding, primary screen, biochemical, uHTS, fluorescence dequenching (AID 1986)).
Chain of Envelope glycoprotein gp160 (Q6QLK5 whole entry, the tested form may be a part): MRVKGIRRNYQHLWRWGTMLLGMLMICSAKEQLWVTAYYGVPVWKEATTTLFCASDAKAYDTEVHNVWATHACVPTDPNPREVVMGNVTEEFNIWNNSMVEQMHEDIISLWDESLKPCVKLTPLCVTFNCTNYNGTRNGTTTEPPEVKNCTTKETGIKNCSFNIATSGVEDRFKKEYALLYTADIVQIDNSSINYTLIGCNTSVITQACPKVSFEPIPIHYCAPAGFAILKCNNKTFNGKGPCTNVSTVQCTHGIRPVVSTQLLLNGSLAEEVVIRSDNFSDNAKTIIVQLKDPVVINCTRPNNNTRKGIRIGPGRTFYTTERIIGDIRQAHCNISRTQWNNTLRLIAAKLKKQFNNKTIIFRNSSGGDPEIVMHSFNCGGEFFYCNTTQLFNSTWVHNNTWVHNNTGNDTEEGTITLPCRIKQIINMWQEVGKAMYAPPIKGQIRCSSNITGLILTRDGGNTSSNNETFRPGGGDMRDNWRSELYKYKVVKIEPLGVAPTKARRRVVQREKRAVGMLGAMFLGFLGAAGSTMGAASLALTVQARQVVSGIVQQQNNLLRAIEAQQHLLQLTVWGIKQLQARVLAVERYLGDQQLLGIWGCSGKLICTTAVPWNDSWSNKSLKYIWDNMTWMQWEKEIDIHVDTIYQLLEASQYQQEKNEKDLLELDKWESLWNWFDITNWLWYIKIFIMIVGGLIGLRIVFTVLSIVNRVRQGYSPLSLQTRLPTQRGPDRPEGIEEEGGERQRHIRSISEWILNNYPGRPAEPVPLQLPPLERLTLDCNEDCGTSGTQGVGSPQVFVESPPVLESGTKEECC
In the case of `CC(/C=C1\SC(=S)N(C(C(=O)O)c2ccccc2)C1=O)=C\c1ccccc1` (centres undefined), the IC50 is reported as 46 µM (active). In the case of `COc1cc(C(=O)Nc2scc(-c3ccc(Br)cc3)c2C(=O)O)cc(OC)c1OC`, the IC50 is reported as 33.2 µM (active). For `COc1ccc(C(=O)Oc2ccc(/C=N/Nc3ccc(Cl)c(C(=O)O)c3)cc2OC)cc1`, the IC50 was 19.3 µM (active). With `O=C(N/N=C/c1cc(Br)c(O)c(Br)c1)c1cc2c(ccc3ccccc32)o1` the IC50 was 15 µM (active).
